How the values were obtained:
human telomeric G4s = assay: G4 microarray competition with Cy5-PDS, telomeric G4s; assay type: binding; conditions: 1 μM BMVC and 1 μM Cy5-PDS
Protocol: Custom G4 microarrays have been designed that contain a total of 19,249 G4 DNA sequences [31, the entirety of disclosure of which, including the supplemental information, is incorporated herein by reference]. The G4 microarrays were created by covalently attaching thousands of unique G4-forming DNA 60-mers to a glass surface. Pyridostatin (PDS) is a known G4-interactive compound. […] To test the binding selectivity of BMVC, competition experiments using custom G4 microarrays were performed. The addition of potassium-containing solution to G4-forming oligonucleotides induced G4 formation. […] After washing to remove the unbound Cy5-PDS and BMVC, the fluorescence intensities of Cy5-PDS bound to DNA oligonucleotides were detected using a fluorescence scanner. The binding selectivity of BMVC to different G4 structures was assessed by measuring the relative fluorescence intensity reduction of Cy5-PDS as BMVC concentration increased.
To determine the G4-binding selectivity of BMVC, the BMVC binding to known G4 structures was examined, including 7 well-studied MYC promoter G4 sequences, 15 other oncogene promoter G4 sequences, and 3 human telomeric G4 sequences (TABLE 4). BMVC competes with the binding of Cy5-PDS to most G4 sequences in a dose-dependent manner as indicated by reduced fluorescence intensities (FIG. 8a). […]

[1] = target: various G4 structures (MYC, VEGF, human telomeric G4s); assay: Apparent dissociation constant by BMVC fluorescence; assay type: binding; conditions: 20 nM BMVC, 25° C.
Protocol: FIG. 11 Apparent dissociation constant (Kd, app) of BMVC binding to various G4 structures determined by BMVC fluorescence. Conditions: 20 nM BMVC, 25° C., pH 7, 100 mM K+ (100 mM Na+ for wtTel22).

[2] = tested on: G4 sequences and non-G4 ssDNA controls on Design 3 microarray; assay: Custom G4 DNA microarray, direct binding by fluorescence intensity; set-up: species or system human
Excerpt: Three Agilent DNA microarrays (TABLE 1) were designed, each with four identical sectors that contain ca.177,440 ssDNA 60-mers to examine G4-binding specificity. Arrays were designed with 9-73 replicates of each unique sequence to ensure statistical significance (TABLE 1). Each microarray contains different sets of G4 variants designed to examine several sequence parameters that affect G4 formation and binding specificity such as loop length (Design 1), loop sequence (Design 2), tail sequence (Design 2), and single nucleotide variants of six known G4s (Design 3). All microarrays include a set of 19 sequences from human telomeres and oncogene promoters known to form G4s with various topologies as positive controls (TABLE 2). Designs 2 and 3 have a set of 295 additional G4-forming sequences from the literature.^30 For the loop length variants, the length of the tails and loops of four different MYC G4 sequences (MYC Pu27, MYC Pu18ntd, MYC Pu22, and MYC Pu22 NMR mutant) was increased up to five times their length. Loop and tail sequences were varied using A, T, G, and C polynucleotide stretches and a subset of combinations. For the loop sequence variants, 4,096 sequences of the form NGGGNGGGNNGGGNGGGN (SEQ ID NO: 2) and 64 variants of the form GGGNGGGNGGGNGGG (SEQ ID NO: 1) were generated. For the tail variants, 256 versions of the major MYC G4 with all possible dinucleotide tails ([…] (SEQ ID NO: 3)) were generated. […]
The binding specificities of several molecules were evaluated. […] Binding of each molecule is measured by detection of fluorescence intensity at each of the microarray features. […] Cellular proteins were expressed as chimeric proteins containing GST, and binding for these proteins was detected using an anti-GST antibody conjugated with Cy5 (Materials and Methods). […] For Cy5-PDS, robust binding is observed at 1 μM, with fluorescence intensities ranging over 100-fold between strongest and weakest bound DNA features. The fluorescence-binding intensities of Cy5-PDS are proportional to the concentration of pyridostatin used). […]

Molecule	inhibition of Cy5-PDS binding to human telomeric G4s (human telomeric G4s)	apparent dissociation constant (Kd, app), ranking for MYC_14/23T G4 ([1]; pH 7, 100 mM K+)	binding to parallel G4s (MYC, VEGF) vs human telomeric G4s by fluorescence ([1]; pH 7, 100 mM K+ (100 mM Na+ for wtTel22))	binding specificity, G4 vs non-G4 ssDNA sequences [2]
C[n+]1ccc(/C=C/c2ccc3[nH]c4ccc(/C=C/c5cc[n+](C)cc5)cc4c3c2)cc1.[I-].[I-] [BMVC, 3,6-Bis(1-methyl-4-vinylpyridinium) carbazole diiodide]	significantly inhibited	highest affinity	stronger than the human telomeric G4s	–
FANCJ: GST-tagged human BRCA1-binding helicase-like protein / Fanconi anemia group J protein (protein, listed as Homo sapiens, GST tag) MSSMWSEYTIGGVKIYFPYKAYPSQLAMMNSILRGLNSKQHCLLESPTGSGKSLALLCSALAWQQSLSGKPADEGVSEKAEVQLSCCCACHSKDFTNNDMNQGTSRHFNYPSTPPSERNGTSSTCQDSPEKTTLAAKLSAKKQASIYRDENDDFQVEKKRIRPLETTQQIRKRHCFGTEVHNLDAKVDSGKTVKLNSPLEKINSFSPQKPPGHCSRCCCSTKQGNSQESSNTIKKDHTGKSKIPKIYFGTRTHKQIAQITRELRRTAYSGVPMTILSSRDHTCVHPEVVGNFNRNEKCMELLDGKNGKSCYFYHGVHKISDQHTLQTFQGMCKAWDIEELVSLGKKLKACPYYTARELIQDADIIFCPYNYLLDAQIRESMDLNLKEQVVILDEAHNIEDCARESASYSVTEVQLRFARDELDSMVNNNIRKKDHEPLRAVCCSLINWLEANAEYLVERDYESACKIWSGNEMLLTLHKMGITTATFPILQGHFSAVLQKEEKISPIYGKEEAREVPVISASTQIMLKGLFMVLDYLFRQNSRFADDYKIAIQQTYSWTNQIDISDKNGLLVLPKNKKRSRQKTAVHVLNFWCLNPAVAFSDINGKVQTIVLTSGTLSPMKSFSSELGVTFTIQLEANHIIKNSQVWVGTIGSGPKGRNLCATFQNTETFEFQDEVGALLLSVCQTVSQGILCFLPSYKLLEKLKERWLSTGLWHNLELVKTVIVEPQGGEKTNFDELLQVYYDAIKYKGEKDGALLVAVCRGKVSEGLDFSDDNARAVITIGIPFPNVKDLQVELKRQYNDHHSKLRGLLPGRQWYEIQAYRALNQALGRCIRHRNDWGALILVDDRFRNNPSRYISGLSKWVRQQIQHHSTFESALESLAEFSKKHQKVLNVSIKDRTNIQDNESTLEVTSLKYSTPPYLLEAASHLSPENFVEDEAKICVQELQCPKIITKNSPLPSSIISRKEKNDPVFLEEAGKAEKIVISRSTSPTFNKQTKRVSWSSFNSLGQYFTGKIPKATPELGSSENSASSPPRFKTEKMESKTVLPFTDKCESSNLTVNTSFGSCPQSETIISSLKIDATLTRKNHSEHPLCSEEALDPDIELSLVSEEDKQSTSNRDFETEAEDESIYFTPELYDPEDTDEEKNDLAETDRGNRLANNSDCILAKDLFEIRTIKEVDSAREVKAEDCIDTKLNGILHIEESKIDDIDGNVKTTWINELELGKTHEIEIKNFKPSPSKNKGMFPGFK	–	–	–	also bind other ssDNAs in addition to folded G4s
DHX36: GST-tagged human DHX36/G4R1/MLEL1 helicase (protein, listed as Homo sapiens, GST tag, GST-tagged human DHX36/G4R1/MLEL1 helicase) MSYDYHQNWGRDGGPRSSGGGYGGGPAGGHGGNRGSGGGGGGGGGGRGGRGRHPGHLKGREIGMWYAKKQGQKNKEAERQERAVVHMDERREEQIVQLLNSVQAKNDKESEAQISWFAPEDHGYGTEVSTKNTPCSENKLDIQEKKLINQEKKMFRIRNRSYIDRDSEYLLQENEPDGTLDQKLLEDLQKKKNDLRYIEMQHFREKLPSYGMQKELVNLIDNHQVTVISGETGCGKTTQVTQFILDNYIERGKGSACRIVCTQPRRISAISVAERVAAERAESCGSGNSTGYQIRLQSRLPRKQGSILYCTTGIILQWLQSDPYLSSVSHIVLDEIHERNLQSDVLMTVVKDLLNFRSDLKVILMSATLNAEKFSEYFGNCPMIHIPGFTFPVVEYLLEDVIEKIRYVPEQKEHRSQFKRGFMQGHVNRQEKEEKEAIYKERWPDYVRELRRRYSASTVDVIEMMEDDKVDLNLIVALIRYIVLEEEDGAILVFLPGWDNISTLHDLLMSQVMFKSDKFLIIPLHSLMPTVNQTQVFKRTPPGVRKIVIATNIAETSITIDDVVYVIDGGKIKETHFDTQNNISTMSAEWVSKANAKQRKGRAGRVQPGHCYHLYNGLRASLLDDYQLPEILRTPLEELCLQIKILRLGGIAYFLSRLMDPPSNEAVLLSIRHLMELNALDKQEELTPLGVHLARLPVEPHIGKMILFGALFCCLDPVLTIAASLSFKDPFVIPLGKEKIADARRKELAKDTRSDHLTVVNAFEGWEEARRRGFRYEKDYCWEYFLSSNTLQMLHNMKGQFAEHLLGAGFVSSRNPKDPESNINSDNEKIIKAVICAGLYPKVAKIRLNLGKKRKMVKVYTKTDGLVAVHPKSVNVEQTDFHYNWLIYHLKMRTSSIYLYDCTEVSPYCLLFFGGDISIQKDNDQETIAVDEWIVFQSPARIAHLVKELRKELDILLQEKIESPHPVDWNDTKSRDCAVLSAIIDLIKTQEKATPRNFPPRFQDGYYS	–	–	–	bind only G4 sequences

From patent US20210333284A1, “METHODS AND MATERIALS FOR LARGE-SCALE ASSESSMENT OF LIGAND BINDING SELECTIVITY OF G-QUADRUPLEX RECOGNITION USING CUSTOM G4 MICROARRAYS” (Purdue Research Foundation, priority 2020, published 2021)
